Assay results reported in article PMC9904497 (2023).

Key:
[1] = tested on: PQS-1682-WT (RNA, G4) GGAGGUGGAUGG; experiment: fluorescence enhancement; details: 150 mM KCl; 10 mM Tris-HCl pH 7.5; 2 µM RNA, 2 µM dye
[2] = tested on: PQS-1234-WT (RNA, G4) GGGUUAGCCAGGGCCGAGGGGGGCUGGG; experiment: fluorescence enhancement; details: 150 mM KCl; 10 mM Tris-HCl pH 7.5; 2 µM RNA, 2 µM dye; higher than in LiCl
[3] = tested on: PQS-91-WT (RNA, G4) GGGGGGAGGGCCGGG; experiment: fluorescence enhancement; details: 150 mM KCl, 10 mM Tris-HCl pH 7.5, 2 µM RNA, 2 µM dye
[4] = tested on: PQS-2302-WT (RNA, G4) GGGGAGGAGG; experiment: fluorescence enhancement; details: 150 mM KCl; 10 mM Tris-HCl pH 7.5; 2 µM RNA, 2 µM dye; higher than in LiCl
[5] = tested on: PQS-1276-WT (RNA, G4) GGGCCUCGGGGAACGGGGGCCGGG; experiment: fluorescence enhancement; details: 150 mM KCl; 10 mM Tris-HCl pH 7.5; 2 µM RNA, 2 µM dye; higher than in LiCl
[6] = tested on: TERRA-WT-CY5 (RNA, G4) UUAGGGUUAGGGUUAGGGUUAGGG; experiment: microscale thermophoresis (MST); details: 150 mM KCl; 10 mM Tris-HCl pH 7.5 folding buffer; BBM stock 80 µM mixed 1:1
[7] = tested on: PQS-2302-WT-CY5 (RNA, G4) GGGGAGGAGG; experiment: microscale thermophoresis (MST); details: 150 mM KCl; 10 mM Tris-HCl pH 7.5 folding buffer; BBM stock 80 µM mixed 1:1
[8] = tested on: PQS-675-WT-CY5 (RNA, G4) GGGCGGGCGGCCUGCAGGGACAUGGG; experiment: microscale thermophoresis (MST); details: 150 mM KCl; 10 mM Tris-HCl pH 7.5 folding buffer; BBM stock 80 µM mixed 1:1

Structure (SMILES) | binding [1] | binding [2] | binding ([3]; only slightly higher than in LiCl) | binding [4] | binding [5] | KD [6] [nM] | KD [7] [nM] | KD [8] [nM] | binding ([3]; higher than in LiCl)
CCc1c(C)c2cc3nc(cc4nc(cc5c(CC)c(C)c(cc1[nH]2)n5C)C(C)=C4CCC(=O)O)C(CCC(=O)O)=C3C | weak | yes | weak | yes | yes |  |  |  | 
COc1cc2c3cc1Oc1c(OC)c(OC)cc4c1[C@@H](Cc1ccc(O)c(c1)Oc1ccc(cc1)C[C@@H]3N(C)CC2)N(C)CC4 |  |  |  |  |  | 11550 | 264.76 | 10.78 | 
Cc1ccc2c(c1)sc(-c1ccc(N(C)C)cc1)[n+]2C | weak | yes |  | yes | yes |  |  |  | yes
